The record followed here is paper PMC9645260, “Small-molecule inhibitors of P-Rex guanine-nucleotide exchange factors” (Small GTPases, 2022).

One assay concerns the target T1, P-Rex1 DH domain (Homo sapiens, UniProt Q8TCU6).
T1 construct: 200 nM iDH EE-P-Rex1 DH domain (compounds 11–29); made in house; host or cells: Sf9 cells (baculovirus)
Nature of the assay: Liposome-based GEF activity assay, isolated P-Rex1 DH domain. It counts as biochemical. Particulars: 10 µM, 200 nM DH domain, without PIP3; read-out: inhibition of constitutive Rac-GEF activity of isolated P-Rex1 DH domain. How it is done:
Full-length N-terminally EE-tagged P-Rex1, P-Rex2, the P-Rex1 DH and DHPH domains and the P-Rex2 DH domain were produced in Sf9 cells using baculoviral transduction and were purified using anti-EE beads, as previously described. Briefly, frozen pellets from 500 ml of Sf9 culture infected with P-Rex expressing high-titre baculovirus were resuspended in ice-cold lysis Sf9-cell lysis buffer 2 (1x PBS, 1% Triton X-100, 5 mM EGTA, 1 mM EDTA, 25 mM NaF, 20 mM β-glycerophosphate, 1 mM DTT, 100 µM PMSF, 10 μg/ml each of leupeptin, pepstatin A, aprotinin and antipain) for 5 min and then ultracentrifuged at 118,000 × g for 1 h at 4°C. Supernatants were incubated with pre-washed anti-EE beads for 90 min on ice with end-over-end rotation. Beads were washed 4 times in wash buffer (2x PBS, 0.1% Triton X-100, 1 mM EGTA) and 5 times in elution buffer (1x PBS, 10% glycerol, 1 mM DTT, 1 mM EGTA, 0.01% Na azide), and protein was eluted by incubation with elution buffer containing Ac-EEYMPME peptide as described above. Protein was concentrated in a YM-100 Centricon (Millipore) at 5000 × g at 4°C. Fatty acid-free BSA and glycerol were added to final concentrations of 2 mg/ml and 50%, respectively. Protein concentration and purity were determined by coomassie staining of SDS-PAGE gels. Full-length Tiam1, expressed in and purified from Sf9 cells, was a kind gift from Angeliki Malliri, CRUK Manchester Institute, UK. […]
Liposome-based GEF activity assays were carried out essentially as described, except that GEFs were incubated with inhibitor compounds prior to the assay. […] Small GTPases were isolated using anti-EE antibody-coupled Sepharose beads or glutathione Sepharose beads, as appropriate, by incubation on ice for 90 min with end-over-end rotation, four washes in ice-cold wash buffer and resuspension of beads in Ultima Gold scintillation fluid (Perkin Elmer). ^35S-GTPγS incorporation was assessed by scintillation counting (Packard 1600TR, Liquid Scintillation Analyser).

The subject of assay [1] is primary mouse neutrophils. Briefly: Neutrophil ROS production, PMA-stimulated. Format: cell-based. The settings on record: 1 µM, 500 nM PMA. How it is done:
Prex^−/− mice (Prex1^−/−Prex2^−/−) with general P-Rex deficiency were described previously and were compared to Prex^+/+ (Prex1^+/+Prex2^+/+) control mice on the same genetic background (C57Bl6/129Ola backcrossed seven times to C57Bl6). Mice were group-housed (up to 5) under specific opportunistic pathogen-free isolator conditions in Babraham’s small animal barrier facility that uses 12 h light/dark cycles with dusk and dawn settings, and were fed chow diet and water ad libitum. Mice from both sexes were used for experiments, at young-adult age (between 8 and 14 weeks), and were sex- and age-matched between genotypes within experiments. […]
Mature primary neutrophils were isolated from the bone marrow of age- and sex-matched Prex^+/+ and Prex^−/− mice freshly each day at 4°C, using Percoll^Plus (GE Healthcare) gradient, as described, using endotoxin-free media throughout. Isolated neutrophils were 70–90% pure, as assessed by KwikDiff staining of cytospins. ROS production was measured by real-time chemiluminescence assay as described, except that neutrophils were incubated with PREX-in1 before the assay. […] Real-time ROS production was recorded in a Berthold MicroLumat Plus luminometer (Berthold Technologies) at 37°C, for 2.5 min with fMLP stimulation or for 10 min with PMA stimulation. […]

For orientation: inhibition means the percentage by which the read-out fell short of the control.

T1 sequence (Q8TCU6 49-240 limits assumed): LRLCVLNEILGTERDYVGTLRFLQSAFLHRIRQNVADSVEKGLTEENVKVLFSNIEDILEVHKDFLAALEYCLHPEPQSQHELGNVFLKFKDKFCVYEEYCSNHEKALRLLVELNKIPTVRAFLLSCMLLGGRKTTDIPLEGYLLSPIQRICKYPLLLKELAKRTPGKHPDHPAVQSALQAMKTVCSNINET

For the molecule `COc1ccc(-c2[nH]nc3c2C(c2ccc(-c4ccc(Cl)cc4)o2)C(C#N)=C(N)O3)cc1` (centres unmarked) [PREX-in1, 6-amino-4-[5-(4-chlorophenyl)-2-furyl]-3-(4-methoxyphenyl)-2,4-dihydropyrano[2,3-c]pyrazole-5-carbonitrile], the inhibition at 10 µM at P-Rex1 DH domain was determined as 98%. The “effect on PMA-induced ROS response” value in assay [1] is given as “unaffected”.
